Test results: US11155557B2, “Pyrazolopyrimidine compounds and methods of use thereof” (Genentech, Inc., priority 2016, dated 2021)
Where two headings read alike, the source gives them in different places.

Assays:
[1] = target: isolated recombinant JAK1 kinase domain (Homo sapiens (Human), UniProt P23458); test: JAK1 enzyme assay (Caliper LabChip, Ki); assay type: biochemical
Protocol: The activity of the isolated recombinant JAK1 and JAK2 kinase domain was measured by monitoring phosphorylation of a peptide derived from JAK3 ([…] fluorescently labeled on the N-terminus with 5-carboxyfluorescein) using the Caliper LabChip R technology (Caliper Life Sciences, Hopkinton, Mass.).

[2] = tested on: JAK1-dependent STAT6 phosphorylation in BEAS-2B human bronchial epithelial cells; test: JAK1 pathway assay: IL-13 stimulated STAT6 phosphorylation in BEAS-2B cells; assay type: cell-based; conditions: BEAS-2B cells, IL-13 stimulation, read-out: IL-13 p-STAT6 BEAS-2B IC50
Protocol: JAK1 Pathway Assay in Cell Lines was Carried Out as Follows:
Inhibitor potency (EC50) was determined in cell-based assays designed to measure JAK1 dependent STAT phosphorylation.
In one assay approach, TF-1 human erythroleukemia cells obtained from the American Type Culture Collection (ATCC; Manassas, Va.) were used to measure JAK1-dependent STAT6 phosphorylation downstream of IL-13 stimulation. Prior to use in the assays, TF-1 cells were starved of GM-CSF overnight in OptiMEM medium (Life Technologies, Grand Island, N.Y.) supplemented with 0.5% charcoal/dextran stripped fetal bovine serum (FBS), 0.1 mM non-essential amino acids (NEAA), and 1 mM sodium pyruvate. The assays were run in 384-well plates in serum-free OptiMEM medium using 300,000 cells per well. In a second assay approach, BEAS-2B human bronchial epithelial cells obtained from ATCC were plated at 100,000 cells per well of a 96-well plate one day prior to the experiment. The BEAS-2B assay was run in complete growth medium (bronchial epithelial basal medium plus bulletkit; Lonza; Basel, Switzerland).
Test compounds were serially diluted 1:2 in DMSO and then diluted 1:50 in medium just before use. Diluted compounds were added to the cells, for a final DMSO concentration of 0.2%, and incubated for 30 min (for the TF-1 assay) or 1 hr (for the BEAS-2B assay) at 37° C. Then, cells were stimulated with human recombinant cytokine at their respective EC90 concentrations, as previously determined for each individual lot. Cells were stimulated with IL-13 (R&D Systems, Minneapolis, Minn.) for 15 min at 37° C. […] The resultant samples were frozen in the plates at −80° C. Compound mediated inhibition of STAT6 phosphorylation was measured in the cell lysates using MesoScale Discovery (MSD) technology (Gaithersburg, Md.).

[3] = target: isolated recombinant JAK2 kinase domain (Homo sapiens (Human), UniProt O60674); test: JAK2 enzyme assay (Caliper LabChip, Ki); conditions: read-out: JAK2 Ki
isolated recombinant JAK2 kinase domain, sequence (O60674 849-1124): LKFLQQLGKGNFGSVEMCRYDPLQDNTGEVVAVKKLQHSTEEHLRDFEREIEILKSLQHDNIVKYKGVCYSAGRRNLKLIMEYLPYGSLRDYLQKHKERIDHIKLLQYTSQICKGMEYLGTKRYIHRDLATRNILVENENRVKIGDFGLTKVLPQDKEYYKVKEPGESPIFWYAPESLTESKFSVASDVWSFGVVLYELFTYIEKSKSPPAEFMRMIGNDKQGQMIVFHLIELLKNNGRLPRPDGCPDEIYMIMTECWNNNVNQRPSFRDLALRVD

isolated recombinant JAK1 kinase domain, sequence (P23458 875-1153): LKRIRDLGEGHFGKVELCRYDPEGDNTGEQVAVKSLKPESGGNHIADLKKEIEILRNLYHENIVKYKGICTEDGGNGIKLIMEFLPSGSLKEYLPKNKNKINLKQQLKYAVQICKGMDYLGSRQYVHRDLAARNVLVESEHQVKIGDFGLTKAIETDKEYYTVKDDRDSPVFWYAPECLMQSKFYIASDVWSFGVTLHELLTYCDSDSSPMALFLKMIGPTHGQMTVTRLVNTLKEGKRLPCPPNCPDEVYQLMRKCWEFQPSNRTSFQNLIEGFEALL

| Compound | Ki [1] [nM] | IC50 [2] [nM] | Ki [3] [nM] | IC50 ([2]; Homo sapiens, BEAS-2B) [nM] | Ki ([1]; formic acid) [nM] | IC50 ([2]; formic acid) [nM] | Ki ([3]; formic acid) [nM] |
| --- | --- | --- | --- | --- | --- | --- | --- |
| CC1CNc2cc(OC(F)F)c(-c3nn(CC(=O)N(C)C)cc3NC(=O)c3cnn4cccnc34)cc2S1 (single isomer, unassigned) [Example 106, N-[3-[6-(difluoromethoxy)-2-methyl-3,4-dihydro-2H-1,4-benzothiazin-7-yl]-1-[2-(dimethylamino)-2-oxo-ethyl]pyrazol-4-yl]pyrazolo[1,5-a]pyrimidine-3-carboxamide] | 0.17 | 27 | 0.19 |  |  |  |  |
| CC1CSc2cc(-c3nn(CC(=O)N4CCCCC4)cc3NC(=O)c3cnn4cccnc34)c(OC(F)F)cc2N1 (single isomer, unassigned) [Example 107, N-[3-[6-(difluoromethoxy)-3-methyl-3,4-dihydro-2H-1,4-benzothiazin-7-yl]-1-[2-oxo-2-(1-piperidyl)ethyl]pyrazol-4-yl]pyrazolo[1,5-a]pyrimidine-3-carboxamide] | 0.2 |  | 0.23 | 11 |  |  |  |
| CC1CSc2cc(-c3nn(CC(=O)N4CCCCC4)cc3NC(=O)c3cnn4cccnc34)c(OC(F)F)cc2N1 (single isomer, unassigned) [Example 108, N-[3-[6-(difluoromethoxy)-3-methyl-3,4-dihydro-2H-1,4-benzothiazin-7-yl]-1-[2-oxo-2-(1-piperidyl)ethyl]pyrazol-4-yl]pyrazolo[1,5-a]pyrimidine-3-carboxamide] | 0.19 | 12 | 0.23 |  |  |  |  |
| CC1CSc2cc(-c3nn(CC(=O)N4CC=CCC4)cc3NC(=O)c3cnn4cccnc34)c(OC(F)F)cc2N1 (single isomer, unassigned) [Example 111, N-[3-[6-(difluoromethoxy)-3-methyl-3,4-dihydro-2H-1,4-benzothiazin-7-yl]-1-[2-(3,6-dihydro-2H-pyridin-1-yl)-2-oxo-ethyl]pyrazol-4-yl]pyrazolo[1,5-a]pyrimidine-3-carboxamide] | 0.2 |  | 0.21 | 15 |  |  |  |
| CC1CSc2cc(-c3nn(CC(=O)N4CC=CCC4)cc3NC(=O)c3cnn4cccnc34)c(OC(F)F)cc2N1 (single isomer, unassigned) [Example 112, N-[3-[6-(difluoromethoxy)-3-methyl-3,4-dihydro-2H-1,4-benzothiazin-7-yl]-1-[2-(3,6-dihydro-2H-pyridin-1-yl)-2-oxo-ethyl]pyrazol-4-yl]pyrazolo[1,5-a]pyrimidine-3-carboxamide] | 0.15 | 10 | 0.18 |  |  |  |  |
| CC1CSc2cc(-c3nn(CC(=O)N(C)C)cc3NC(=O)c3cnn4cccnc34)c(OC(F)F)cc2N1 (single isomer, unassigned) [Example 113, N-[3-[6-(difluoromethoxy)-3-methyl-3,4-dihydro-2H-1,4-benzothiazin-7-yl]-1-[2-(dimethylamino)-2-oxo-ethyl]pyrazol-4-yl]pyrazolo[1,5-a]pyrimidine-3-carboxamide] | 0.22 |  | 0.27 | 22 |  |  |  |
| CC1CSc2cc(-c3nn(CC(=O)N(C)C)cc3NC(=O)c3cnn4cccnc34)c(OC(F)F)cc2N1 (single isomer, unassigned) [Example 114, N-[3-[6-(difluoromethoxy)-3-methyl-3,4-dihydro-2H-1,4-benzothiazin-7-yl]-1-[2-(dimethylamino)-2-oxo-ethyl]pyrazol-4-yl]pyrazolo[1,5-a]pyrimidine-3-carboxamide] | 0.21 | 15 | 0.24 |  |  |  |  |
| CN1CCC(n2cc(NC(=O)c3cnn4cccnc34)c(-c3cc4c(cc3OC(F)F)NCCS4)n2)C1=O (single isomer, unassigned) [Example 125, N-[3-[6-(difluoromethoxy)-3,4-dihydro-2H-1,4-benzothiazin-7-yl]-1-(1-methyl-2-oxo-pyrrolidin-3-yl)pyrazol-4-yl]pyrazolo[1,5-a]pyrimidine-3-carboxamide] | 0.15 | 81 | 0.11 |  |  |  |  |
| CN1CCC(n2cc(NC(=O)c3cnn4cccnc34)c(-c3cc4c(cc3OC(F)F)NCCS4)n2)C1=O (single isomer, unassigned) [Example 126, N-[3-[6-(difluoromethoxy)-3,4-dihydro-2H-1,4-benzothiazin-7-yl]-1-(1-methyl-2-oxo-pyrrolidin-3-yl)pyrazol-4-yl]pyrazolo[1,5-a]pyrimidine-3-carboxamide] | 0.88 | 286 | 0.43 |  |  |  |  |
| O=C(Nc1cn(C2CCOC2=O)nc1-c1cc2c(cc1OC(F)F)NCCS2)c1cnn2cccnc12 (single isomer, unassigned) [Example 141, N-[3-[6-(difluoromethoxy)-3,4-dihydro-2H-1,4-benzothiazin-7-yl]-1-(2-oxotetrahydrofuran-3-yl)pyrazol-4-yl]pyrazolo[1,5-a]pyrimidine-3-carboxamide] | 0.17 |  | 0.09 | 11 |  |  |  |
| O=C(Nc1cn(C2CCOC2=O)nc1-c1cc2c(cc1OC(F)F)NCCS2)c1cnn2cccnc12 (single isomer, unassigned) [Example 142, N-[3-[6-(difluoromethoxy)-3,4-dihydro-2H-1,4-benzothiazin-7-yl]-1-(2-oxotetrahydrofuran-3-yl)pyrazol-4-yl]pyrazolo[1,5-a]pyrimidine-3-carboxamide] | 0.09 | 15 | 0.06 |  |  |  |  |
| O=C(Nc1cn(C2CCOC2=O)nc1-c1cc2c(cc1OC(F)F)NCCO2)c1cnn2cccnc12 (single isomer, unassigned) [Example 145, N-[3-[6-(difluoromethoxy)-3,4-dihydro-2H-1,4-benzoxazin-7-yl]-1-(2-oxotetrahydrofuran-3-yl)pyrazol-4-yl]pyrazolo[1,5-a]pyrimidine-3-carboxamide] | 0.6 | 36 | 0.42 |  |  |  |  |
| O=C(Nc1cn(C2CCOC2=O)nc1-c1cc2c(cc1OC(F)F)NCCO2)c1cnn2cccnc12 (single isomer, unassigned) [Example 146, N-[3-[6-(difluoromethoxy)-3,4-dihydro-2H-1,4-benzoxazin-7-yl]-1-(2-oxotetrahydrofuran-3-yl)pyrazol-4-yl]pyrazolo[1,5-a]pyrimidine-3-carboxamide; formic acid] |  |  |  |  | 0.32 | 74 | 0.29 |
| O=C(Nc1c[nH]nc1-c1cc2ccccc2cc1OC(F)F)c1cnn2cccnc12 [Example 1, N-(3-(3-(difluoromethoxy)naphthalen-2-yl)-1H-pyrazol-4-yl)pyrazolo[1,5-a]pyrimidine-3-carboxamide] | 0.31 |  | 0.14 | 6 |  |  |  |
| O=C(Nc1cn(CC(=O)N2CCC(CN3CCOCC3)CC2)nc1-c1cc2ccccc2cc1OC(F)F)c1cnn2cccnc12 [Example 3, N-(3-(3-(difluoromethoxy)naphthalen-2-yl)-1-(2-(4-(morpholinomethyl)piperidin-1-yl)-2-oxoethyl)-1H-pyrazol-4-yl)pyrazolo[1,5-a]pyrimidine-3-carboxamide] | 0.38 |  | 0.97 | 8 |  |  |  |
| Cn1cc(NC(=O)c2cnn3cccnc23)c(-c2cc3ccccc3cc2OC(F)F)n1 [Example 4, N-(3-(3-(difluoromethoxy)naphthalen-2-yl)-1-methyl-1H-pyrazol-4-yl)pyrazolo[1,5-a]pyrimidine-3-carboxamide] | 0.22 |  | 0.12 | 22 |  |  |  |
